Assay [1] has as its system NaV1.7 with DII S1-S2 loop of NaV1.8. Kind of assay: Voltage-dependence of activation, NaV1.7/NaV1.8 chimera DII S1-S2. In kind it is cell-based, human. The following applies: Eo1a 10 μM; NaV1.7 with NaV1.8 DII S1-S2; HEK293 β1/β2, transient; mean ± SEM, n = 3–6 cells. The method, then: (§1) Human Embryonic Kidney (HEK) 293 cells stably expressing human NaV1.1 to NaV1.7/β1 (SB Drug Discovery, Glasgow, United Kingdom), Chinese Hamster Ovary (CHO) cells stably expressing human NaV1.8/β3 in a tetracycline-inducible system (ChanTest, Cleveland, OH, United States), and HEK293 cells stably expressing rat transient receptor potential vanilloid 1 (TRPV1) were cultured as previously described ([Yin et al., 2020]). Human KV2.1 and NaV1.7 mutants were transiently transfected into HEK293 cells stably expressing β1/β2 using Lipofectamine 2000 (Thermo Fisher Scientific, Scoresby, VIC, Australia) and used for patch-clamp experiments 48 h after transfection. Cells were grown in an incubator at 37°C with 5% CO2 and passaged every 3–4 d (at 70–80% confluency) using TrypLE Express (Thermo Fisher Scientific).
Wild-type (WT) hNaV1.7 cDNA (NM_002,977, a gift from Dr James Cox, University College London) was subjected to in vitro site-directed mutagenesis using the QuikChange™ XL mutagenesis kit (Agilent Technologies) following the manufacturer’s instructions. NaV1.7 mutants were generated by substituting the domain II (DII) S1-S2 loop, the DII S3-S4 loop, the domain IV (DIV) S1-S2 loop and the DIV S3-S4 loop in NaV1.7 with the corresponding regions of NaV1.8. The mutations were verified by sequencing at the Brisbane node of the Australian Genome Research Facility. […]

The test system of the next assay is TRPV1. In words: TRPV1 calcium assay (FLIPR). The following applies: Eo1a 10 μM, HEK293, rat TRPV1, Calcium 4 dye, 300 s, compared with capsaicin 300 nM, n = 3 wells. In kind it is cell-based. The protocol:
as §1
The activity of Eo1a at rTRPV1 was assessed using the assay described previously ([Yin et al., 2020]). Briefly, the TRPV1 activator capsaicin (300 nM) and Eo1a (10 μM) were added to cells loaded with Calcium 4 no-wash dye (Molecular Devices) and changes in fluorescence were assessed using a FLIPR^TETRA (excitation 470–495 nm, emission 515–575 nm) every 1 s for 300 s. Fluorescence responses were normalized to baseline fluorescence (ΔF/F) and plotted versus time using ScreenWorks 3.2.0.14.

For a further assay, the system named is NaV1.4. In words: I-V protocol, whole-cell patch-clamp, NaV1.4. In kind it is cell-based, human. The following applies: Eo1a 10 μM. The protocol: as §1
Automated whole-cell patch-clamp recordings were performed with a QPatch-16 automated electrophysiology platform (Sophion Bioscience, Ballerup, Denmark) using single-hole (QPlate 16 with a standard resistance of 2 ± 0.4 MΩ) or multi-hole (QPlate 16X with a standard resistance 0.2 ± 0.04 MΩ, NaV1.8 only) as previously described ([McMahon et al., 2020]).
The extracellular solution (ECS) consisted of (in mM) 145 NaCl (replaced with 70 choline chloride for NaV1.4, NaV1.5 and NaV1.7), 4 KCl, 2 CaCl2, 1 MgCl2, 10 HEPES, and 10 glucose, pH to 7.4 with NaOH (adjusted to 305 mOsm/L with sucrose). For NaV recordings the intracellular solution (ICS) consisted of (in mM) 140 CsF, 1 EGTA, 5 CsOH, 10 HEPES, and 10 NaCl, pH to 7.3 with CsOH (adjusted to 320 mOsm/L with sucrose). For KV2.1 recordings the ICS consisted of (in mM) 50 KCl, 60 KF, 10 EGTA, 10 HEPES, 10 NaCl pH to 7.3 with KOH (adjusted to 320 mOsm/L with sucrose). TTX (1 μM) was added to the ECS for NaV1.8 recordings to inhibit background endogenous TTX sensitive current in CHO cells.
I-V curves were obtained with a holding potential of −90 mV followed by a series of 500 ms step pulses that ranged from −110 to +80 mV in 5-mV increments (repetition interval 5 s) before and after 5 min incubation with Eo1a (10 μM). Conductance-voltage (G-V) curves were obtained by calculating the conductance (G) at each voltage (V) using equation G = I/(V − V rev ), where V rev is the reversal potential. G-V curves were fitted with a Boltzmann equation. […]
The time constant of fast inactivation (τ) was computed by fitting the current decay traces with a single exponential function using QPatch Assay Software 5.6 (Sophion). The time to peak was calculated from pulse onset to peak inward current using QPatch Assay Software 5.6 (Sophion).
(The patch-clamp technique gives a direct electrical read-out from membranes.)

Another assay relates to mice. Kind of assay: Spontaneous pain behaviours after intraplantar injection in mice. In kind it is in vivo, mouse. The following applies: 40 μl intraplantar, n = 3–4. The text has this:
Adult male C57BL/6J mice aged 4–8 weeks were sourced from the Animal Resource Centre (Canning Vale, Western Australia). Adult male NaV1.8 knockouts ([Nassar et al., 2004]) (aged 8–11 weeks) and wild-type littermates were housed and tested at University College London. Animals were housed in groups of three or four per cage under 12-h light-dark cycles and were provided with standard rodent chow and water ad libitum. Ethical approval for experiments involving animals was obtained from The University of Queensland animal ethics committee (TRI/IMB/093/17, IMB/PACE/421/18) and the United Kingdom Home Office (project licence PPL 70/7382). All experiments were conducted in accordance with the International Association for the Study of Pain Guidelines for the Use of Animals in Research and the Australian Code of Practice for the Care and Use of Animals for Scientific Purposes, 8th edition (2013).
Eo1a (1 μM or 10 μM) was diluted in saline/0.1% BSA and administered by intraplantar injection to the left hind paw of mice in a volume of 40 μl under isoflurane (3%) anaesthesia, and spontaneous pain behaviours (licks, bites, shakes, and lifts of the hind paw) were counted by a blinded investigator for up to 40 min after the injection.

Where a SMILES comes first, the peptide text is derived from it. Bridges are numbered along the chain shown (N, C = ends).

In assay [1], `CC[C@H](C)[C@@H]1NC(=O)[C@H](CCCNC(=N)N)NC(=O)[C@@H]2CSSC[C@@H]3NC(=O)CNC(=O)CNC(=O)[C@H](CC(C)C)NC(=O)[C@H](Cc4ccccc4)NC(=O)[C@H](Cc4c[nH]c5ccccc45)NC(=O)[C@H](CCCNC(=N)N)NC(=O)[C@@H](NC(=O)[C@@H](N)CC(=O)O)CSSC[C@H](NC(=O)[C@H](CSSC[C@@H](C(=O)N[C@@H](C)C(=O)N[C@@H](Cc4c[nH]c5ccccc45)C(=O)N[C@@H](CC(=O)O)C(=O)NCC(=O)N[C@H](C(=O)N[C@@H](Cc4ccccc4)C(N)=O)[C@@H](C)O)NC(=O)[C@H](Cc4ccc(O)cc4)NC(=O)[C@H](CCCCN)NC(=O)[C@H]([C@@H](C)CC)NC(=O)[C@H](Cc4ccc(O)cc4)NC(=O)CNC(=O)[C@H](CC(=O)O)NC1=O)NC(=O)[C@H](CC(=O)O)NC(=O)[C@H](CO)NC(=O)[C@H](CC(=O)O)NC(=O)[C@H](CCCCN)NC(=O)[C@H](CO)NC3=O)C(=O)N[C@@H](CCCCN)C(=O)N[C@@H](Cc1c[nH]cn1)C(=O)N[C@@H](CC(C)C)C(=O)N[C@@H](C)C(=O)N2` [Eo1a] (H-DCRWFLGGCSKDSDCCKHLACRIDGYIKYCAWDGTF-NH2; disulfide 2-16, 9-21, 15-30 (inferred); N-terminus assumed) showed a ΔV1/2 activation of −3.7 ± 0.5 mV. Besides, in the assay on TRPV1, the “activity at TRPV1 (Ca2+ dye fluorescence over baseline)” value is listed as “minimal activity”. The “peak current I/I0” value in the assay on NaV1.4 (5 min, peak from I-V protocol at any voltage, normalised to buffer control, HEK293 hNaV1.4/β1, mean ± SEM, n = 4–6 cells) is on record as 0.68 ± 0.04. This compound also came in with a V1/2 activation with NaV1.4 (NaV1.4, 5 min, control −27.6 ± 1.4 mV, mean ± SEM, n = 4–6) of −28.8 ± 1.2 mV. In addition, the “V1/2 inactivation (steady-state fast inactivation)” value in the assay on NaV1.4 (NaV1.4, 5 min, control −65.8 ± 1.3 mV, mean ± SEM, n = 4–6) is recorded as −67.6 ± 1.2. In the assay on NaV1.4 (NaV1.4, test pulse −20 mV), the “effect on inactivation kinetics” value is “minimal effect”. For the same compound, the spontaneous pain behaviours entry with mice (Eo1a 1 μM) is reported as “induced spontaneous pain behaviours”; in the assay with mice (Eo1a 10 μM, gradually subsided over 30 min) it was “caused spontaneous pain behaviours that gradually subsided over 30 min”.
